Patent publication US6602664B2 (priority 1998, dated 2003)
pEC50: −log10 of the molar value. Counter-ions that a name gives are not always drawn. Like-named read-outs stand apart in the source and are kept apart here.

How the values were obtained:
[1] = system: HIV-1 replication in human PBM cells; experiment: microbe, parasite or virus in culture; format: cell-based
Experimental: Cells and viruses. […] Antimicrobial Agents Chemother 1992;36(11): 2423-2431.
Cell pellets were washed, centrifuged, lysed and the proviral DNA extracted as previously described. Cytotoxicity of the compounds was determined using the Promega Cell Titer 96 dye uptake assay (Madison, Wis.) in 1-2 day PHA-stimulated PBM cells after 5 days in culture. The median effective concentration (EC50) and inhibitory concentration (IC50) were derived from the computer-generated median effect plot of the dose-effect data, as described previously.

[2] = system: recombinant HIV-1 virus isolates; format: cell-based
Text: The aim of the study was to determine the potency of the inhibitory effect of a new generation of NRTIs on Multi Drug Resistant isolates and to compare it with their effect on wild-type HIV-1 isolates. All recombinant viruses were taken from the VIRCO repository of phenotypically and genotypically characterized virus isolates. Hirsch et al. Antiretroviral Drug Resistance Testing in Adults with HIV Infection. JAMA; 1998: 79(24) 1984-1991. See also Pauwels et al. Comprehensive HIV drug Resistance monitoring using rapid, high-throughput phenotypic and genotypic assays with correlative data analysis. Antiviral Therapy, 1998: 3: 35 Abstract 51.
Phenotypic drug susceptibility determination of recombinant virus isolates is described in Hertogs et al. A Rapid Method for Simultaneous Detection of Phentypic Resistance to Inhibitors of Protease and Reverse Transcriptase in Recombinant HIV-1 Isolates from Patients Treated with Antiretroviral Drugs. Antimicrob. Agents Chemother. 1998; 42(2): 269-276. The basic principle of the Antivirogram® technology is the construction of chimeric HIV-1 strains composed of the protease (PR) and reverse transcriptase (RT) gene sequences which are isolated and amplified from patient viral RNA. Amplicons are subsequently transfected into CD4+T cells together with a standard laboratory isogenic (HXB2) HIV-1 DNA construct from which the PR/RT gene sequences were deleted. After homologous recombination, new viruses whose diversity reflects the original population amplified from the plasma are produced at high level from these cells.
The virus infectivity (CCID50) is determined by an end-point dilution method. The titer is calculated from the degree of infection, measured by the intensity of reporter-gene signal as generated by serial dilutions of the virus shock. The chimeric (clinical isolates and wild-type reference) viruses are then analyzed for their phenotypic sensitivity (i.e. susceptibility) to the different PR and RT-inhibitors in an automated reporter gene-based assay using serial dilutions of the compound. The standardisation of the Antivirogram®n assay allows for simultaneous testing of all clinically approved drugs in one 384-well microtiter plate. The experimental drugs are included in separate plates. Each plate contains multiple replicates of mock-infected wells, virus-infection control wells and blank (medium-only) well. All plates are tested in duplicate. 50% Inhibitory concentrations are calculated based on reporter signals obtained through optical reading of 384-well plates containing serial dilutions of compounds, a normalised quantity of virus and by taking into account all relevant control wells. Approval (or not) is done according to critical ranges and settings as described in the corresponding VIRCO Standard Operating Procedure.
A more detailed description of the protocol is as follows. Samples were stored frozen. […] To confirm the genotypic pattern, genotyping (ABI-sequencing) was performed after recombination and culture of the laboratory strains by analysis of cell viability, calculation of results (dose-response curves, IC50 values), and reporting of data.

In the case of `CC(C)(C)NC(=O)[C@@H]1CN(Cc2cccnc2)CCN1C[C@@H](O)C[C@@H](Cc1ccccc1)C(=O)N[C@H]1c2ccccc2C[C@H]1O` [Indinavir, {1(1,S,2R),5(S)]-2,3,5-trideoxy-N-(2,3-dihydro-2-hydroxy-1H-inden-1-yl)-5-[2-[[(1,1-dimethylethyl)amino]carbonyl]4-(3-pyridinylmethyl)-1-piperazinyl]-2-(phenylmethyl)-D-erythro-pentoamide sulfate], the “m ± SE (slope of median effect plot)” value [1] was 0.86 ± 0.17, the EC90 ([1]; Human immunodeficiency virus 1, PBMC) was 19 nM and the inhibition at 1 µM ([1]; Human immunodeficiency virus 1, PBMC, 144 h, concentration 0.001 mM, day 6, read-out: Inhibition %) was 29.9%. It also gave an inhibition at 10 µM ([1]; Human immunodeficiency virus 1, PBMC, 144 h, concentration 0.01 mM, day 6, read-out: Inhibition %) of 88.7% and a pEC50 ([1]; Human immunodeficiency virus 1, PBMC, Table 3A, human PBMC) of 8.82.

With `Nc1ccn([C@@H]2CS[C@H](CO)O2)c(=O)n1` [3TC, (−)-β-2′,3′-dideoxy-3′-thiacytidine] the pEC50 ([1]; Human immunodeficiency virus 1, PBMC, Table 2, human PBMC) was 8.17, the EC90 ([1]; Human immunodeficiency virus 1, PBMC, Table 2, human PBMC, read-out: EC90) was 51 nM and the “m ± SE (slope of median effect plot)” value ([1]; Table 2, human PBMC) was 1.08 ± 0.15. The “fold Resistance” value ([2]; RT genotype D67D/N, K70R, M184V, G333E) was over 99, the “fold Resistance” value ([2]; RT genotype D67N, K70R, K219Q/K, 181C/Y) was 3.7 and the “fold Resistance” value ([2]; RT genotype K70R, K219Q) was 1. The “fold Resistance” value ([2]; RT genotype M41L, D67N, K70R, K103N, L210W, T215Y, K219N/K) was 8.25, the “fold Resistance” value ([2]; RT genotype M41L, L210L, T215Y, Y181C/Y, M184M/V) was 3 and the “fold Resistance” value ([2]; RT genotype M41L, L210W, T215Y) was 0.4. The “fold Resistance” value ([2]; RT genotype M41L, T69S-V-T, L210W, T215Y, G333E) was over 65, the “fold Resistance” value ([2]; RT genotype M41L, T215Y, M184V) was over 99 and the “fold Resistance” value ([2]; RT genotype T69G, Q151M, M184V/M) was over 65. The “fold Resistance” value ([2]; RT genotype T69I, K70R, Q151M, M184V) was over 65, the “fold Resistance” value ([2]; RT genotype T69S-E, M184I, T215Y) was over 65 and the “fold Resistance” value ([2]; RT genotype T215Y) was 1.5. The “fold Resistance” value ([2]; recombinant isolate, RT genotype K70R) was 1.

`Nc1nc(N)c2ncn([C@H]3CO[C@@H](CO)O3)c2n1` [DAPD, β-D-dioxolanyl-2,6-diaminopurine] was tested, and the pEC50 ([1]; Table 3, human PBMC) was 5.74, the “m ± SE (slope of median effect plot)” value ([1]; Table 3, human PBMC) was 1.40 ± 0.14 and the EC90 ([1]; Table 3, human PBMC, read-out: EC90) was 8680 nM.
